From patent US4599424A, “5-substituted thiadiazole ureas and their use as herbicides” (priority 1979, dated 1986)

Tests used:
Johnson grass (JG) [1] = experiment: Post-emergence herbicide test, Johnson grass; assay type: in vivo, Sorgum helepense; details: two weeks
Procedure: (§1) Johnson grass (JG)--Sorgum helepense
(§2) All crop and weed species were planted individually in 3" plastic pots containing potting soil. Four seeds each of corn, cotton, and snapbeans were seeded to a depth equal to the diameter of the seed. All other species were surface seeded and sprinkled with screened soil in an amount sufficient to cover the seed. Immediately after planting, all pots were watered by sub-irrigation in greenhouse trays. Pots for the pre-emergence phase were seeded one day before treatment.
(§3) Planting dates for the post-emergence phase were varied so that all seedlings would reach the desired stage of development simultaneously. The proper stage of seedling development for treatment in the post-emergence phase is as follows:
(§4) Spray hood constants required to deliver the above volume are as follows:
(§5) Formulations for spray applications were prepared in 50 ml volumes with the following three components: […]
(§6) Spray applications were made in a hood containing a removable belt and fixed spray nozzle. For passage through the spray hood, one pot of each specie (pre-emergence phase) was placed on the rear half of the flat. Treatments were removed to the greenhouse after spraying. Watering during the observation period was done only by sub-irrigation.
(§7) Two weeks after treatment, pre- and post-emergence injury or control was visually rated, and the results were as shown in the following tables. Pre-emergence data are provided in TABLE III and post-emergence data are provided in TABLE IV, for compounds having the formula illustrated in TABLE I. Correspondingly, pre-emergence and post-emergence data, respectively, are set forth in TABLES V AND VI, for compounds having the formula illustrated in TABLE II.

Bean (BN) [2] = experiment: Post-emergence herbicide test, bean; assay type: in vivo, Phaseolus vulgaris var. Black Valentine; details: two weeks
Procedure: (§8) Bean (BN)--Phaseolus vulgaris var. Black Valentine
as §2, §3
Beans: primary leaves expanded, growing point at primary leaf nodes.
as §4
(§9) Formulations for spray applications were prepared in 50 ml volumes with the following three components:
(§10) Formulations for the 4 lbs/acre rate were prepared by adjusting the amount of active ingredient accordingly.
as §6, §7

Crabgrass (CG) [3] = experiment: Pre-emergence herbicide test, crabgrass; assay type: in vivo, Digitaria sanguinalis; details: two weeks
Procedure: (§11) Crabgrass (CG)--Digitaria sanguinalis
as §2, §4, §9, §10, §6, §7

Corn (CN) [4] = experiment: Post-emergence herbicide test, corn; assay type: in vivo, Zea mays; details: two weeks
Procedure: as §2, §3
(§12) Compounds were tested at rates of application equivalent to 8 lbs. of actual compound per acre in a spray volume of 38 gallons per acre. Spray hood constants required to deliver the above volume are as follows:
as §9, §10, §6, §7

[5] = system: Yellow foxtail grass (YF); experiment: Pre-emergence herbicide test, yellow foxtail grass; assay type: in vivo, Setarin glauca; details: two weeks
Procedure: (§13) Yellow foxtail grass (YF)--Setarin glauca
as §2, §4, §5, §6, §7

Turnip (TP) [6] = experiment: Pre-emergence herbicide test, turnip; assay type: in vivo, Brassica sp.; details: two weeks
Procedure: (§14) Turnip (TP)--Brassica sp.
as §2, §4, §5, §6, §7

Cotton (CT) [7] = experiment: Post-emergence herbicide test, cotton; assay type: in vivo, Gossypium hirsutum var. DPL smooth leaf; details: two weeks
Procedure: (§15) Cotton (CT)--Gossypium hirsutum var. DPL smooth leaf
as §2, §3
cotton: first true leaf 1" in length; expanded cotyledons.
as §4, §9, §10, §6, §7

Amaranth pigweed (PW) [8] = experiment: Post-emergence herbicide test, amaranth pigweed; assay type: in vivo, Amaranthus retroflexus; details: two weeks
Procedure: (§16) Amaranth pigweed (PW)--Amaranthus retroflexus
as §2, §3
(§17) Pigweed and turnips: 1 or 2 true leaves above visible cotyledons.
as §12, §9, §10, §6, §7

Crabgrass (CG) [9] = experiment: Post-emergence herbicide test, crabgrass; assay type: in vivo, Digitaria sanguinalis; details: two weeks
Procedure: as §11, §2, §3, §4, §5, §6, §7

Amaranth pigweed (PW) [10] = experiment: Pre-emergence herbicide test, amaranth pigweed; assay type: in vivo, Amaranthus retroflexus; details: two weeks
Procedure: as §16, §2, §12, §9, §10, §6, §7

Turnip (TP) [11] = experiment: Post-emergence herbicide test, turnip; assay type: in vivo, Brassica sp.; details: two weeks
Procedure: as §14, §2, §3, §17, §4, §5, §6, §7

[12] = system: Yellow foxtail grass (YF); experiment: Post-emergence herbicide test, yellow foxtail grass; assay type: in vivo, Setarin glauca; details: two weeks
Procedure: as §13, §2, §3, §12, §9, §10, §6, §7

Corn (CN) [13] = experiment: Pre-emergence herbicide test, corn; assay type: in vivo, Zea mays; details: two weeks
Procedure: as §2, §12, §9, §10, §6, §7

Bean (BN) [14] = experiment: Pre-emergence herbicide test, bean; assay type: in vivo, Phaseolus vulgaris var. Black Valentine; details: two weeks
Procedure: as §8, §2, §12, §9, §10, §6, §7

Barnyard grass (BG) [15] = experiment: Post-emergence herbicide test, barnyard grass; assay type: in vivo, Echinochloa crus-galli; details: two weeks
Procedure: (§18) Barnyard grass (BG)--Echinochloa crus-galli
as §2, §3, §4, §5, §6, §7

Barnyard grass (BG) [16] = experiment: Pre-emergence herbicide test, barnyard grass; assay type: in vivo, Echinochloa crus-galli; details: two weeks
Procedure: as §18, §2, §12, §9, §10, §6, §7

Cotton (CT) [17] = experiment: Pre-emergence herbicide test, cotton; assay type: in vivo, Gossypium hirsutum var. DPL smooth leaf; details: two weeks
Procedure: as §15, §2, §12, §9, §10, §6, §7

Johnson grass (JG) [18] = experiment: Pre-emergence herbicide test, Johnson grass; assay type: in vivo, Sorgum helepense; details: two weeks
Procedure: as §1, §2, §4, §5, §6, §7

[19] = system: a variety of crops and weed species; experiment: Pre- and post-emergence herbicide tests, overall assessment of TABLES III-VI; assay type: in vivo; details: from data of TABLES III-VI
Procedure: as §2, §3, §12, §7
Typical of such compounds are: 1, 2, 5, 26, 36, and 37.

CNC(=O)N(C)c1nnc(C(C)(C)C)s1 [Example 42]
POST-EMERGENCE ACTIVITY, % CONTROL (Johnson grass (JG) [1]; 2 lb/acre): 70% | POST-EMERGENCE ACTIVITY, % CONTROL (Johnson grass (JG) [1]; 4 lb/acre): 90% | POST-EMERGENCE ACTIVITY, % CONTROL (Johnson grass (JG) [1]; 8 lb/acre): 100% | POST-EMERGENCE ACTIVITY, % CONTROL (Bean (BN) [2]; 2 lb/acre): 80% | POST-EMERGENCE ACTIVITY, % CONTROL (Bean (BN) [2]; 4 lb/acre): 100% | POST-EMERGENCE ACTIVITY, % CONTROL (Bean (BN) [2]; 8 lb/acre): 100% | PRE-EMERGENCE ACTIVITY, % CONTROL (Crabgrass (CG) [3]; 2 lb/acre): 90% | PRE-EMERGENCE ACTIVITY, % CONTROL (Crabgrass (CG) [3]; 4 lb/acre): 90% | PRE-EMERGENCE ACTIVITY, % CONTROL (Crabgrass (CG) [3]; 8 lb/acre): 90% | POST-EMERGENCE ACTIVITY, % CONTROL (Corn (CN) [4]; 2 lb/acre): 70% | POST-EMERGENCE ACTIVITY, % CONTROL (Corn (CN) [4]; 4 lb/acre): 70% | POST-EMERGENCE ACTIVITY, % CONTROL (Corn (CN) [4]; 8 lb/acre): 100% | PRE-EMERGENCE ACTIVITY, % CONTROL ([5]; 2 lb/acre): 90% | PRE-EMERGENCE ACTIVITY, % CONTROL ([5]; 4 lb/acre): 80% | PRE-EMERGENCE ACTIVITY, % CONTROL ([5]; 8 lb/acre): 90% | PRE-EMERGENCE ACTIVITY, % CONTROL (Turnip (TP) [6]; 2 lb/acre): 100% | PRE-EMERGENCE ACTIVITY, % CONTROL (Turnip (TP) [6]; 4 lb/acre): 90% | PRE-EMERGENCE ACTIVITY, % CONTROL (Turnip (TP) [6]; 8 lb/acre): 100% | POST-EMERGENCE ACTIVITY, % CONTROL (Cotton (CT) [7]; 2 lb/acre): 100% | POST-EMERGENCE ACTIVITY, % CONTROL (Cotton (CT) [7]; 4 lb/acre): 100% | POST-EMERGENCE ACTIVITY, % CONTROL (Cotton (CT) [7]; 8 lb/acre): 100% | POST-EMERGENCE ACTIVITY, % CONTROL (Amaranth pigweed (PW) [8]; 2 lb/acre): 100% | POST-EMERGENCE ACTIVITY, % CONTROL (Amaranth pigweed (PW) [8]; 4 lb/acre): 100% | POST-EMERGENCE ACTIVITY, % CONTROL (Amaranth pigweed (PW) [8]; 8 lb/acre): 100% | POST-EMERGENCE ACTIVITY, % CONTROL (Crabgrass (CG) [9]; 2 lb/acre): 40% | POST-EMERGENCE ACTIVITY, % CONTROL (Crabgrass (CG) [9]; 4 lb/acre): 70% | POST-EMERGENCE ACTIVITY, % CONTROL (Crabgrass (CG) [9]; 8 lb/acre): 100% | PRE-EMERGENCE ACTIVITY, % CONTROL (Amaranth pigweed (PW) [10]; 2 lb/acre): 100% | PRE-EMERGENCE ACTIVITY, % CONTROL (Amaranth pigweed (PW) [10]; 4 lb/acre): 100% | PRE-EMERGENCE ACTIVITY, % CONTROL (Amaranth pigweed (PW) [10]; 8 lb/acre): 100% | POST-EMERGENCE ACTIVITY, % CONTROL (Turnip (TP) [11]; 2 lb/acre): 100% | POST-EMERGENCE ACTIVITY, % CONTROL (Turnip (TP) [11]; 4 lb/acre): 100% | POST-EMERGENCE ACTIVITY, % CONTROL (Turnip (TP) [11]; 8 lb/acre): 100% | POST-EMERGENCE ACTIVITY, % CONTROL ([12]; 2 lb/acre): 90% | POST-EMERGENCE ACTIVITY, % CONTROL ([12]; 4 lb/acre): 90% | POST-EMERGENCE ACTIVITY, % CONTROL ([12]; 8 lb/acre): 100% | PRE-EMERGENCE ACTIVITY, % CONTROL (Corn (CN) [13]; 2 lb/acre): 0% | PRE-EMERGENCE ACTIVITY, % CONTROL (Corn (CN) [13]; 4 lb/acre): 60% | PRE-EMERGENCE ACTIVITY, % CONTROL (Corn (CN) [13]; 8 lb/acre): 90% | PRE-EMERGENCE ACTIVITY, % CONTROL (Bean (BN) [14]; 2 lb/acre): 40% | PRE-EMERGENCE ACTIVITY, % CONTROL (Bean (BN) [14]; 4 lb/acre): 90% | PRE-EMERGENCE ACTIVITY, % CONTROL (Bean (BN) [14]; 8 lb/acre): 100% | POST-EMERGENCE ACTIVITY, % CONTROL (Barnyard grass (BG) [15]; 2 lb/acre): 90% | POST-EMERGENCE ACTIVITY, % CONTROL (Barnyard grass (BG) [15]; 4 lb/acre): 90% | POST-EMERGENCE ACTIVITY, % CONTROL (Barnyard grass (BG) [15]; 8 lb/acre): 100% | PRE-EMERGENCE ACTIVITY, % CONTROL (Barnyard grass (BG) [16]; 2 lb/acre): 80% | PRE-EMERGENCE ACTIVITY, % CONTROL (Barnyard grass (BG) [16]; 4 lb/acre): 90% | PRE-EMERGENCE ACTIVITY, % CONTROL (Barnyard grass (BG) [16]; 8 lb/acre): 90% | PRE-EMERGENCE ACTIVITY, % CONTROL (Cotton (CT) [17]; 2 lb/acre): 30% | PRE-EMERGENCE ACTIVITY, % CONTROL (Cotton (CT) [17]; 4 lb/acre): 70% | PRE-EMERGENCE ACTIVITY, % CONTROL (Cotton (CT) [17]; 8 lb/acre): 90% | PRE-EMERGENCE ACTIVITY, % CONTROL (Johnson grass (JG) [18]; 2 lb/acre): 70% | PRE-EMERGENCE ACTIVITY, % CONTROL (Johnson grass (JG) [18]; 4 lb/acre): 90% | PRE-EMERGENCE ACTIVITY, % CONTROL (Johnson grass (JG) [18]; 8 lb/acre): 100%

O=C(Nc1ccc(Cl)cc1)Nc1nnc(C(F)(F)F)s1 [Example 15]
herbicidal effectiveness and selectivity (in words) [19]: more selective

CCNC(=O)Nc1nnc(C(F)(F)F)s1 [Example 9]
herbicidal effectiveness and selectivity (in words) [19]: more selective

CNC(=O)N(C)c1nnc(C(F)(F)F)s1 [Example 36]
herbicidal effectiveness and selectivity (in words) [19]: extremely effective

Cc1nnc(NC(=O)N(C)C)s1 [Example 19]
herbicidal effectiveness and selectivity (in words) [19]: converse of this relationship

CNC(=O)Nc1nnc(C(F)(F)F)s1 [Example 1, 1-Methyl-3-[5-Trifluoromethyl-2-(1,3,4-Thiadiazolyl)]Urea]
herbicidal effectiveness and selectivity (in words) [19]: extremely effective

CCc1nnc(NC(=O)N(C)C)s1 [Example 20]
herbicidal effectiveness and selectivity (in words) [19]: more selective

CNC(=O)Nc1nncs1 [Example 35]
herbicidal effectiveness and selectivity (in words) [19]: more selective

CN(C)C(=O)Nc1nnc(C(F)(F)F)s1 [Example 2, 1,1-Dimethyl-3-[5-Trifluoromethyl-2-(1,3,4-Thiadiazolyl)]Urea]
herbicidal effectiveness and selectivity (in words) [19]: extremely effective
